The text below walks through data of patent US20040219512A1, “Screening methods for cataractogenic risk” (Pfizer Inc, priority 2003, published 2004).

One data set deals with Rodent lens explants. As for the experimental part: Rodent lenses were surgically removed and placed in tissue culture 199 (TC199) media (Invitrogen) supplemented with bicarbonate buffer with and without 10 mM TEA (Sigma Aldrich Co.). Darkfield photomicrographs of the cells were taken over a seven day period.
A further data set relates to SRA 01/04 cells. To be noted: concentrations of TEA greater than five mM.
Data set [1] deals with chloride channels on the lens. Particulars: literature, Zhang, J. J. (1994); cited from earlier work.

Source text for SRA 01/04 cells: Preparation of Lens Epithelial Cell Line Culture Cells from the cell line, SRA 01/04 (deposited in the National Institute of Bioscience and Human-Technology Agency of Industrial Science and Technology, Ibaraki, Japan, international deposit No. FERM BP-5454) were thawed and plated on the bottom of a 25 square centimeter tissue culture flask (Falcon™ Flask, BD Biosciences, Lincoln Park, N.J.) and grown in high-glucose DMEM supplemented with 15% of FBS (Invitrogen, Grand Island, N.Y.) and 1% of penicillin/streptomysin (Invitrogen) at 37° C. in 5% CO2 and 95% air environment. The medium was changed twice a week. When confluence of 90-100% was reached (about 7-14 days), the medium was removed from the culture flask and the cells on the bottoms were washed with one ml of trypsin-EDTA (0.05% trypsin and EDTA, Invitrogen). […]
Approximately 15 μl of the cell suspension was pipetted onto a glass coverslip (Warner Instruments, Hamden, Conn., USA) placed on the transparent bottoms of a recording chamber mounted on an inverted differential interference contrast microscope (Eclipse TE300, Nikon, Tokyo, Japan). Whole cell currents were measured under the whole-cell configuration at room temperature (24-26° C.) using a multiclamp 700A dual channel multi-purpose microelectrode amplifier (Axon Instruments, Foster City, Calif., USA). […]

In the case of `CC[N+](CC)(CC)CC` [TEA, tetraethylammonium], in the data set with Rodent lens explants (10 mM TEA in TC199 media, photomicrographs over seven days), the “clouding of the lens compared with control” value is listed as “increased clouding of the lens”. Besides, in the data set on Rodent lens explants (10 mM TEA, imaged after five days in culture), the “pixel intensity histogram of lens explants” value is “rightward shift in the intensity histogram”. Also, the “additional current block at higher concentration” value in the data set with SRA 01/04 cells is listed as “no significant additional current block”.

For the compound `CC/C(=C(\c1ccccc1)c1ccc(OCCN(C)C)cc1)c1ccccc1` [tamoxifen], the “effect on chloride channels on the lens” value in data set [1] is “blocks chloride channels on the lens”.
